US20240261274A1, “TREATMENT OF MYC-DRIVEN CANCERS WITH GSPT1 DEGRADERS” (MONTE ROSA THERAPEUTICS, INC., priority 2021, published 2024)
Like-named read-outs stand apart in the source and are kept apart here.

Assays:
[1] = target: T1, Full length wild-type cereblon CRBN (Homo sapiens, UniProt Q96SW2); test: Fluorescence polarization (FP) assay indicating cereblon binding
T1 construct: Full length wild-type cereblon CRBN (80.0 nM, 10 μL) was incubated in assay buffer
Protocol: Compound activity was monitored in a fluorescence polarization (FP) homogeneous assay using 1-[5-({2-[2-(2-{[2-(2,6-dioxopiperidin-3-yl)-1,3-dioxo-2,3-dihydro-1H-isoindol-4-yl]oxy}acetamido)ethoxy]ethyl}carbamoyl)pentyl]-3,3-dimethyl-2-[(1E,3E)-5-[(2E)-1,3,3-trimethyl-5-sulfo-2,3-dihydro-1H-indol-2-ylidene]penta-1,3-dien-1-yl]-3H-indol-1-ium-5-sulfonate as a fluorescent probe. Unless otherwise stated, all reagents were purchased from Sigma Aldrich. Enzymatic reactions were conducted in Perkin-Elmer Black 384 well ProxiPlate Plus (catalogue no. 6008269) in 10 μL total volume. Full length wild-type cereblon CRBN (80.0 nM, 10 μL) was incubated in assay buffer containing 20 mM HEPES (pH 8.0), […], 0.5 mM TCEP and 0.05% Tween 20 in the presence or absence of compound (300 nL). Inhibitors were stored as 10 mM DMSO stocks in an inert environment (low humidity, dark, low oxygen, room temperature) using the Storage Pod System. Compounds and DMSO were dispensed using the Echo E5XX (Labcyte Inc. USA) to give concentrations from 300 to 0.937 or 3000 to 9.3 nM in a 12 data point curve. […] Following incubation at room temperature for 30 min, the assay was initiated by dispensing the probe to a final concentration of 5 nM (2.5 nL of a 20 μM stock) using the Echo E5XX. FP was measured after a period of 12 hours using a Pherastar plate reader (BMG Labtech, Germany) exciting at 590 nm and measuring the amount of parallel and perpendicular light at 675 nm. The FP signal was subsequently normalized to the no-compound control (i.e., DMSO). Analysis and IC50 values were derived using Dotmatics (Dotmatics UK) software.

GSPT1 = GSPT1 (Homo sapiens, UniProt P15170+Q96SW2); test: GSPT1 degradation immunofluorescence assay in CAL-51 cells; assay type: cell-based; parameters: endogenous in cells; host or cells: CAL-51 (DSMZ ACC302); details: 6 hours
Sequence of GSPT1 (P15170 whole entry): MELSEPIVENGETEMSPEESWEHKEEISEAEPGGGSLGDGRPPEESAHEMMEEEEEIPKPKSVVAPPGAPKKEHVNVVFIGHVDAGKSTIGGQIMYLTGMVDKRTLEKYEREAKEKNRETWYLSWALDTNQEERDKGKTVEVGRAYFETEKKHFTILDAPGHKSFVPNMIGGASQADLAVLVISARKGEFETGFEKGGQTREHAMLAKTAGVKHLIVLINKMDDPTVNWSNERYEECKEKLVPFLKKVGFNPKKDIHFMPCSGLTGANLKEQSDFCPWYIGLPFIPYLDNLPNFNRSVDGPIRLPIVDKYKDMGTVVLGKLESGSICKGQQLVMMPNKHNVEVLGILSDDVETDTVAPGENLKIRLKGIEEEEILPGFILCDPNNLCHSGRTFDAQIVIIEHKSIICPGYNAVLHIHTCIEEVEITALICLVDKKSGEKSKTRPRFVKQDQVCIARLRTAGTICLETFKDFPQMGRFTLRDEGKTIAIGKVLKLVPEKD
Sequence of GSPT1 (Q96SW2 whole entry): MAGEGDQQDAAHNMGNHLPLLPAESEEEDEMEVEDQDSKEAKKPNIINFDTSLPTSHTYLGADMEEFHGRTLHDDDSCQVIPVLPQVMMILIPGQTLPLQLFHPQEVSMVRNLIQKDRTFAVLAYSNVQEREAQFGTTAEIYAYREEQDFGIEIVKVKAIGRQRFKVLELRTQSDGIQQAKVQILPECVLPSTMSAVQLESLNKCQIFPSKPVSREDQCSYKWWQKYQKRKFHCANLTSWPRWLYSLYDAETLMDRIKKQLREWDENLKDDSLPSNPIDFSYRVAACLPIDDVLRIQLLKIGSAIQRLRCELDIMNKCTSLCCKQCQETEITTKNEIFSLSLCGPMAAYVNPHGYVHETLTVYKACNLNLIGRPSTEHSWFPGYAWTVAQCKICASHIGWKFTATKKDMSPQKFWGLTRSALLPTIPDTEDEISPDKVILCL
Sequence of GSPT1 (Q16531 whole entry partner): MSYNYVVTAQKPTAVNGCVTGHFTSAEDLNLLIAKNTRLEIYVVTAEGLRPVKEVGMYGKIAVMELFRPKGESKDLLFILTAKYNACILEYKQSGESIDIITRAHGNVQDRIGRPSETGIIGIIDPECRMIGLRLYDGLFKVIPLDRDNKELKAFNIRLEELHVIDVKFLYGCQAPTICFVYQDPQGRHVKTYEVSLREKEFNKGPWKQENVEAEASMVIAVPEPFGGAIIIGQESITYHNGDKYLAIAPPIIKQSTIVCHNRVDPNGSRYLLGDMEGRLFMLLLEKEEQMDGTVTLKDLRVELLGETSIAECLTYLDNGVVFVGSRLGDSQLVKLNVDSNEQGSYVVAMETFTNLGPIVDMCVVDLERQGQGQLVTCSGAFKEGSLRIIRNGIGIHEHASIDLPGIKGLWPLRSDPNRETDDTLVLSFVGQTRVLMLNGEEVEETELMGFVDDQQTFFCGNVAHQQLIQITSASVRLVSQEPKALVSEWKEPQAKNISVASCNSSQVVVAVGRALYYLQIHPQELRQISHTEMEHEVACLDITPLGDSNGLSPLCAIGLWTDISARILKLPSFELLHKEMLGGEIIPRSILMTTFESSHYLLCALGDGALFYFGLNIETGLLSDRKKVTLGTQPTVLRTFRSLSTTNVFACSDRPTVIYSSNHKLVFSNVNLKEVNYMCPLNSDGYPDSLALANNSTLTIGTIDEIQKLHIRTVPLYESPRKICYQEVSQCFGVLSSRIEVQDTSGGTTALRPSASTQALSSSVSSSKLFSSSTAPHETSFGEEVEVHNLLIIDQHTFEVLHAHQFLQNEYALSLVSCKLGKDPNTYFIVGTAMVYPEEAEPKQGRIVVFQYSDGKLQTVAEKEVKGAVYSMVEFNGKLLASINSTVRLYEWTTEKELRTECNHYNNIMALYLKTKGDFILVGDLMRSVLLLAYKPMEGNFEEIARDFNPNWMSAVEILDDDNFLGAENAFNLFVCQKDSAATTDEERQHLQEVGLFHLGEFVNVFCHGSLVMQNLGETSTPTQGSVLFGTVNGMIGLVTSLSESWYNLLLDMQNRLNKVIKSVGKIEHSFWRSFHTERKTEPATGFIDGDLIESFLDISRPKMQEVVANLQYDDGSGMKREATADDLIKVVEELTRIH
Protocol: CAL-51 cells were purchased from DSMZ (cat. Number ACC302), sub-cultured in 90% Dulbecco's MEM (4.5 g/L glucose, Gibco 11965)+10% heat inactivated FBS (BioConcept, 2-01F1361) and incubated at 37° C., 5% CO2. For the assay, imaging microtiterplate Cell Carrier 96 Ultra (Perkin Elmer 6055302) were pre-coated with Fibronectin (Sigma F085, 30 μl at 0.2 μg/ml) in PBS (100 μl, Gibco 14190) for 45 min at room temperature, rinsed with PBS and CAL-51 cells (30K cells/well) were plated and let to adhere overnight. Cells were treated with compounds typically using a serial dilution ranging from 30 μM to 0.1 nM for 6 hours. Compounds were stored at 10 mM DMSO stocks. Vehicle (DMSO), positive (CC-885, 10 μM) and rescue controls (positive control plus 0.2 μM bortezomib) were also included at this stage. Cells were subsequently rinsed with PBS and fixed in 10% Formalin solution (50 μl, Sigma HT5011)) for 20 mins at room temperature. Following three consecutive PBS washes (100 μl), cells were permeabilized in 0.1% Triton X-100 in PBS (Sigma 93443, 50 μl) for 15 mins at room temperature. Following three further PBS washes, 50 μl blocking buffer (1% BSA, Sigma A4503, in PBS) was added for 45 min for signal-to-noise reduction. Primary antibody (human GSPT1, Sigma HPA052488) was diluted in blocking buffer (dil. 1/300, 35 μl/well) and incubated with the cells overnight at 4° C. After three PBS washes, Alexa-fluor 488 coupled secondary antibodies (Invitrogen, A32731, dil. 1/1000), Alexa-fluor 647-Phalloidin (Invitrogen, A22287, dil. 1/200) and DAPI (Thermo, #62248, dil. 1/1000) were diluted in blocking buffer and incubated with the samples for 2 hours at room temperature. After three final PBS washes, samples were conserved in 100 μl PBS in the dark, until measurement. Image acquisition was performed on the Operetta High-Content Imager (Perkin-Elmer). Fluorescence intensity of Alexa-Fluor 488 (GSPT1), Alexa-Fluor 647 (Actin) and DAPI (Nucleus) were measured. For the determination of GSPT1 DC50 values, a custom algorithm implemented in the PerkinElmer image analysis software Harmony-Acapella® was developed. After user-defined setting of adjustment parameters, the analysis was run identically without human intervention for all image fields. DAPI staining of the nuclei was used to determine the location of cells using standard nuclei detection modules. Segmentation artifacts were removed by threshold-based filters for area, roundness and intensity. The outline of the cells was determined analogously from the sum of the normalized, smoothed DAPI and Actin channel, starting from each nucleus. The Alexa-Fluor 488 (GSPT1) signal intensity in each cell was finally measured, in order to obtain a Mean intensity per cell. GSPT1 degradation (DC50) was calculated after normalization to controls and data import in CDD vault Database, using non-linear regression.

[2] = bound stated, read-out: IC50 value
[3] = Table 4, read-out: Activity for GSPT1 degradation, Code (DC50)
[4] = Table 5B, read-out: Activity for GSPT1 degradation, Code (DC50)

T1 sequence (Q96SW2 whole entry): as the sequence (Q96SW2 whole entry) above

With `CN(C)CC(=O)Oc1cccc(CNC(=O)NCc2ccc3c(c2)C(=O)N(C2CCC(=O)NC2=O)C3)c1` (stereo not shown) [Compound 136] the IC50 [1, 2] was < 1100 nM and the DC50 (GSPT1; [3]) was > 300 nM.
`Cc1c(Cl)cc(NC(=O)NCc2ccc3c(c2)C(=O)N(C2CCC(=O)NC2=O)C3)cc1CN1CC2CC1CO2` (stereo not shown) [Compound 139] was tested, and the IC50 [1, 2] was < 1100 nM and the DC50 (GSPT1; [3]) was ≤ 100 nM.
With `CC(C)(C)c1ccc(NC(=O)OCc2cc(F)c3c(c2)C(=O)N(C2CCC(=O)NC2=O)C3)cn1` (stereo not shown) [Compound 509] the IC50 ([1]; Table 3B, read-out: rFP IC50) was 1200 to 1900 nM and the DC50 (GSPT1; [4]) was ≤ 30 nM.
In the case of `CC(C)(C)c1ccc(NC(=O)OCc2cc(F)c3c(c2)C(=O)N(C2CCC(=O)NC2=O)C3)cc1` (stereo not shown) [Compound 510], the IC50 ([1]; Table 3B, read-out: rFP IC50) is reported as > 1900 nM and the DC50 (GSPT1; [4]) is reported as 30 to 300 nM.
`O=C1CCC(N2Cc3c(F)cc(COC(=O)Nc4ccc(F)c(OC(F)(F)F)c4)cc3C2=O)C(=O)N1` (stereo not shown) [Compound 514] was tested, and the IC50 ([1]; Table 3B, read-out: rFP IC50) was > 1900 nM and the DC50 (GSPT1; [4]) was 30 to 300 nM.
In the case of `CC1(C)COc2cc(NC(=O)OCc3cc(F)c4c(c3)C(=O)N(C3CCC(=O)NC3=O)C4)ccc21` (stereo not shown) [Compound 517], the IC50 ([1]; Table 3B, read-out: rFP IC50) is reported as ≤ 600 nM and the DC50 (GSPT1; [4]) is reported as ≤ 30 nM.
`Cc1cc(NC(=O)OCc2cc(F)c3c(c2)C(=O)N(C2CCC(=O)NC2=O)C3)cnc1-c1ccccc1` (stereo not shown) [Compound 520] was tested, and the IC50 ([1]; Table 3B, read-out: rFP IC50) was 600 to 1200 nM and the DC50 (GSPT1; [4]) was ≤ 30 nM.
In the case of `O=C1CCC(N2Cc3c(F)cc(COC(=O)Nc4ccc(C5CCC5)cc4)cc3C2=O)C(=O)N1` (stereo not shown) [Compound 522], the IC50 ([1]; Table 3B, read-out: rFP IC50) is reported as > 1900 nM and the DC50 (GSPT1; [4]) is reported as ≤ 30 nM.
In the case of `C[C@@H]1CCCN1c1ccc(NC(=O)OCc2cc(F)c3c(c2)C(=O)N(C2CCC(=O)NC2=O)C3)cn1` (stereo partly shown) [Compound 523], the IC50 ([1]; Table 3B, read-out: rFP IC50) is reported as 600 to 1200 nM and the DC50 (GSPT1; [4]) is reported as ≤ 30 nM.
For `Cc1cc(Cl)cc(NC(=O)OCc2cc(F)c3c(c2)C(=O)N(C2CCC(=O)NC2=O)C3)c1` (stereo not shown) [Compound 527], the IC50 ([1]; Table 3B, read-out: rFP IC50) was 1200 to 1900 nM and the DC50 (GSPT1; [4]) was 30 to 300 nM.
`O=C1CCC(N2Cc3c(F)cc(COC(=O)Nc4ccc(-c5ccccc5F)c(F)c4)cc3C2=O)C(=O)N1` (stereo not shown) [Compound 529] was tested, and the IC50 ([1]; Table 3B, read-out: rFP IC50) was > 1900 nM and the DC50 (GSPT1; [4]) was ≤ 30 nM.
With `O=C1CCC(N2Cc3c(F)cc(COC(=O)Nc4cc(F)c(-c5ccccc5)c(F)c4)cc3C2=O)C(=O)N1` (stereo not shown) [Compound 530] the IC50 ([1]; Table 3B, read-out: rFP IC50) was > 1900 nM and the DC50 (GSPT1; [4]) was 30 to 300 nM.
`O=C1CCC(N2Cc3c(F)cc(COC(=O)Nc4ccc(F)c(Cl)c4)cc3C2=O)C(=O)N1` (stereo not shown) [Compound 532] was tested, and the IC50 ([1]; Table 3B, read-out: rFP IC50) was > 1900 nM and the DC50 (GSPT1; [4]) was 30 to 300 nM.
In the case of `O=C1CCC(N2Cc3c(F)cc(COC(=O)Nc4cc(F)cc(Cl)c4)cc3C2=O)C(=O)N1` (stereo not shown) [Compound 533], the IC50 ([1]; Table 3B, read-out: rFP IC50) is reported as > 1900 nM and the DC50 (GSPT1; [4]) is reported as 30 to 300 nM.
For `COc1cc(COC(=O)Nc2ccc(F)c(OC(F)(F)F)c2)cc2c1CN(C1CCC(=O)NC1=O)C2=O` (stereo not shown) [Compound 539], the IC50 ([1]; Table 3B, read-out: rFP IC50) was 1200 to 1900 nM and the DC50 (GSPT1; [4]) was ≤ 30 nM.
With `COc1cc(COC(=O)Nc2cc(F)cc(OC(F)F)c2)cc2c1CN(C1CCC(=O)NC1=O)C2=O` (stereo not shown) [Compound 547] the IC50 ([1]; Table 3B, read-out: rFP IC50) was 600 to 1200 nM and the DC50 (GSPT1; [4]) was ≤ 30 nM.
For `COc1cc(COC(=O)Nc2ccc(C3CCC3)cc2)cc2c1CN(C1CCC(=O)NC1=O)C2=O` (stereo not shown) [Compound 557], the IC50 ([1]; Table 3B, read-out: rFP IC50) was ≤ 600 nM and the DC50 (GSPT1; [4]) was ≤ 30 nM.
In the case of `O=C1CCC(N2Cc3c(F)cc(COC(=O)Nc4cc(F)c(F)c(Cl)c4)cc3C2=O)C(=O)N1` (stereo not shown) [Compound 561], the IC50 ([1]; Table 3B, read-out: rFP IC50) is reported as > 1900 nM and the DC50 (GSPT1; [4]) is reported as ≤ 30 nM.
With `COc1cc(COC(=O)Nc2ccc(N3CCC[C@@H]3C)nc2)cc2c1CN(C1CCC(=O)NC1=O)C2=O` (stereo partly shown) [Compound 562] the IC50 ([1]; Table 3B, read-out: rFP IC50) was ≤ 600 nM and the DC50 (GSPT1; [4]) was 30 to 300 nM.
In the case of `COc1cc(COC(=O)Nc2cc(OC(F)(F)F)ccc2F)cc2c1CN(C1CCC(=O)NC1=O)C2=O` (stereo not shown) [Compound 566], the DC50 (GSPT1; [4]) is reported as > 300 nM.
With `COc1cc(COC(=O)Nc2cc(C)cc(F)c2)cc2c1CN(C1CCC(=O)NC1=O)C2=O` (stereo not shown) [Compound 567] the DC50 (GSPT1; [4]) was ≤ 30 nM.
For `COc1c(COC(=O)Nc2ccc(C)c(Cl)c2)ccc2c1C(=O)N(C1CCC(=O)NC1=O)C2` (stereo not shown) [Compound 570], the IC50 ([1]; Table 3B, read-out: rFP IC50) was > 1900 nM and the DC50 (GSPT1; [4]) was > 300 nM.
For `Cc1ccc(NC(=O)OCc2ccc3c(c2Cl)C(=O)N(C2CCC(=O)NC2=O)C3)cc1Cl` (stereo not shown) [Compound 572], the IC50 ([1]; Table 3B, read-out: rFP IC50) was > 1900 nM and the DC50 (GSPT1; [4]) was > 300 nM.
`Cc1ccc(NC(=O)OCc2ccc3c(c2C)C(=O)N(C2CCC(=O)NC2=O)C3)cc1Cl` (stereo not shown) [Compound 573] was tested, and the IC50 ([1]; Table 3B, read-out: rFP IC50) was ≤ 600 nM and the DC50 (GSPT1; [4]) was > 300 nM.
